# Tested on: patients with major depressive disorder (MDD)
# Experiment: Open-label 12-week study of memantine in MDD (MEM-MD-09): safety and adverse events
# Type: in vivo, human
# Description: Study Design. The study was designed as a single-center, open-label, flexible dose 12-week study. Memantine was to be administered at 20 mg/day (10 mg b.i.d.) (titrated over a 4 week period), and, if warranted, up-titrated to a maximum of 40 mg/day (20 mg b.i.d.) (titrated in increments of 10 mg/day after Week 4).
# Drug Treatment. All eight patients were initially given 5 mg/day and titrated over a 3-week period to a minimum dose of 20 mg/day. Patients with an unsatisfactory therapeutic response (CGI-I score greater than 2) could increase to a maximum of 40 mg/day (2 patients, 30 mg/day and 40 mg/day, respectively). One patient was titrated to 30 mg/day after Week 8, and […] after Week 10. The mean treatment duration was 82 days (range: 57-86 days) and the mean daily dose was 18.1 mg/day.
# Safety. Safety was assessed throughout the course of the study by monitoring vital signs and spontaneously reported adverse events.
smiles,measurement,setting,value
"CC12CC3CC(C)(C1)CC(N)(C3)C2.Cl [Memantine, 1-amino-3,5-dimethyladamantane hydrochloride]","clinical laboratory parameters, vital signs or ECG values","20-40 mg/day, 12 weeks",no safety findings of concern
same,"deaths, serious adverse events, discontinuations due to adverse events","20-40 mg/day, 12 weeks","No deaths, serious adverse events or discontinuations due to adverse events"
same,safety and tolerability,"20-40 mg/day, 12 weeks",safe and well tolerated
same,Number of Patients Reporting TEAE: Amnesia,"Safety Population, N = 8",2 patients
same,Number of Patients Reporting TEAE: Anxiety,"Safety Population, N = 8",2 patients
same,Number of Patients Reporting TEAE: Dizziness,"Safety Population, N = 8",2 patients
same,Number of Patients Reporting TEAE: Headache,"Safety Population, N = 8",2 patients
same,Number of Patients Reporting TEAE: Influenza-like Symptoms,"Safety Population, N = 8",2 patients
same,Number of Patients Reporting TEAE: Insomnia,"Safety Population, N = 8",2 patients
same,Number of Patients Reporting TEAE: Patients with at least one TEAE,"Safety Population, N = 8",8 patients
same,Number of Patients Reporting TEAE: Somnolence,"Safety Population, N = 8",3 patients
